# Patent publication US12241902B2, “Probes for detection of copper” (The Regents of the University of California, priority 2019, dated 2025)
# Values joined by “and” are separate entries in the source; they are usually repeats but may differ in a detail not shown here. Equal values may be shown once.
# Experiments:
# [1] = tested on: labile Cu(I) pools in HEK 293T cells; test: Ratiometric confocal fluorescence imaging of labile Cu(I) in HEK 293T cells; format: cell-based, Human; settings: CuCl2 25 μM, FL-TPA 5 μM, λex 488 nm (FIG. 15)
# Experimental: (A) Confocal fluorescence microscopy images of HEK 293T cells pretreated with solvent vehicle control or varying concentrations of CuCl2 in complete medium for 18 h. The cells were then washed with PBS, incubated with FCP-1 (5 μM) in DPBS for 45 min and then imaged. (B) Average cellular ratiometric emission ratios, represented by Fgreen/Forange, as determined from imaging experiments in (A) performed in triplicate. (C) Confocal fluorescence microscopy images of HEK 293T cells pretreated with solvent vehicle control or BCS (100 μM) in complete medium for 18 h. The cells were then washed with PBS, incubated with FCP-1 (5 μM) in DPBS for 45 min and then imaged. (D) Average cellular ratiometric emission ratios of FCP-1, Fgreen/Forange, as determined from experiments in (C) performed in triplicate. […] (E) ICP-MS measurement to determine total cellular ^63Cu levels in HEK293T cells under copper supplementation and depletion relative to the control (with normalization of different cell numbers by total cellular ^31P level). Error bars denote standard derivation (SD; n=3). *p<0.05, **p<0.01, ***p<0.001, ****p<0.0001 and *****p<0.00001.
# Cell culture. Following cell cultures were grown: Human embryonic kidney (HEK 293T) cells were maintained in Dulbecco's Modified Eagle Medium (DMEM) supplemented with 10 vol % fetal bovine serum (FBS), 1 vol % GlutaMax (Gibco) and 1 vol % non-essential amino acids (NEAA, Gibco). Ctrl1^+/+ and Ctr1^−/− MEF cells were maintained in DMEM with 10 vol % FBS, 1 vol % non-essential amino acids, 1 vol % sodium pyruvate and 0.1 vol % 2-mercaptoethanol or DMEM supplemented with 10 vol % FBS and 1× Penicillin-Streptomycin. Human cervical epithelial carcinoma (HeLa) was maintained in DMEM medium supplemented with 1 vol % GlutaMAX and 10 vol % FBS. […]
# Confocal fluorescence microscopy imaging. For confocal fluorescence imaging experiments of HEK293T, MEF Ctr1^+/+ and Ctr1^−/− and HeLa cells, the cells were plated on 8-well Lab Tek borosilicate chambered coverglass slides (Nunc), and allowed to grow to ca. 60% confluency before performing the cell imaging experiments. […] For quantification, a threshold value was set as background and the average intensity of the whole image was measured by ImageJ. […]
# Given the metal and oxidation state-selective and sensitive response of FCP-1 to Cu(I), this probe was examined for ratiometric fluorescence imaging of labile Cu(I) pools in living cells. […] The observed increases and decreases in labile Cu(I) levels upon copper supplementation (CuCl2) and copper depletion (BCS) treatments, respectively, as measured by FCP-1 imaging were supported by complementary ICP-MS measurements of total copper levels showing expected increases and decreases in the total copper pool (FIG. 9, panel C).
# [2] = tested on: labile Cu(I) in Ctr1^+/+ MEFs; test: Confocal fluorescence imaging of labile Cu(I) in Ctr1+/+ MEFs; format: cell-based, mouse; settings: FL-TPA 5 μM, 45 min, λex 488 nm
# Experimental: (A) Confocal fluorescence microscopy images of Ctr1^+/+ MEFs and Ctr1^−/− MEFs treated with solvent control, CuCl2 (100 or 300 μM) or BCS (500 μM) in complete medium for 8 h, washed with complete medium and PBS, incubated with FCP-1 (5 μM) in DPBS for 45 min, and then imaged with λex=458 nm. (B) Average cellular ratiometric emission ratios of FCP-1, Fgreen/Forange, as determined from experiments performed in triplicate. (C) Total cellular ^63Cu levels were determined by ICP-MS experiments (with normalization of different cell numbers by total cellular ^31P level). (D) Confocal fluorescence microscopy images of Ctr1^+/+ MEFs and Ctr1^−/− MEFs incubated with FL-TPA (5 μM) in DPBS for 45 min. The cells were then imaged with λex=488 nm. (E) Average cellular fluorescence intensity of FL-TPA, FFL-TPA, determined from experiments performed in triplicate with λex=488 nm. Error bars denote SD (n=3). *p<0.05, **p<0.01 and ***p<0.001.
# Cell culture. Following cell cultures were grown: Human embryonic kidney (HEK 293T) cells were maintained in Dulbecco's Modified Eagle Medium (DMEM) supplemented with 10 vol % fetal bovine serum (FBS), 1 vol % GlutaMax (Gibco) and 1 vol % non-essential amino acids (NEAA, Gibco). Ctrl1^+/+ and Ctr1^−/− MEF cells were maintained in DMEM with 10 vol % FBS, 1 vol % non-essential amino acids, 1 vol % sodium pyruvate and 0.1 vol % 2-mercaptoethanol or DMEM supplemented with 10 vol % FBS and 1× Penicillin-Streptomycin. Human cervical epithelial carcinoma (HeLa) was maintained in DMEM medium supplemented with 1 vol % GlutaMAX and 10 vol % FBS. All cells were incubated in 5% CO2 humidified air and subcultured at 80% confluence.
# Confocal fluorescence microscopy imaging. For confocal fluorescence imaging experiments of HEK293T, MEF Ctr1^+/+ and Ctr1^−/− and HeLa cells, the cells were plated on 8-well Lab Tek borosilicate chambered coverglass slides (Nunc), and allowed to grow to ca. 60% confluency before performing the cell imaging experiments. The confocal imaging was performed with a Zeiss laser scanning microscope 710 with 20× or 63× oil-immersion objective lens using Zen 2009 software (Carl Zeiss). FCP-1 was excited with 458 nm with an Ar laser, and the emissions were collected using a META detector between 465 and 541 nm (Fgreen), and between 559 and 710 nm (Forange). DRAQ-5 was excited with a 633 nm He Ne laser, and its emission was collected using a META detector between 661 and 759 nm. Image analysis was performed using ImageJ, with ratiometric images generated by the Ratio Plus plugin of ImageJ. For quantification, a threshold value was set as background and the average intensity of the whole image was measured by ImageJ. All experiments were performed in triplicate, and statistical analyses were performed with a two-tailed Student's t-test (MS excel).
# Having established that FCP-1 is sensitive to endogenous pools of labile Cu(I) under basal conditions and can respond to changes in labile Cu(I) pools upon pharmacological copper supplementation and/or depletion, the application of FCP-1 to visualize alterations in endogenous labile Cu(I) pools through genetic manipulation was explored. To this end, comparative FCP-1 imaging was performed in mouse embryonic fibroblast cells that are either Cu-replete (Ctr1^+/+ MEFs) or Cu-deficient (Ctr1^−/− MEFs) through knockout of the high-affinity copper transporter CTR1 (64-66).
# Complementary ICP-MS measurements confirm that total copper levels in Ctr1^−/− MEFs are lower than Ctr1^+/+ MEFs (FIG. 12C). […]
# [3] = UV-vis absorption and emission measurements in aqueous buffer; format: physicochemical
# Experimental: UV-vis absorption and emission measurements. FCP-1 stock solution in DMSO (5 mM) was prepared, aliquoted and stored at […]. For each spectroscopic measurement, a fresh aliquot was diluted to 500 μM by DMSO and further diluted with PBS containing 2 mM GSH/PEG-400 mixture (3:2, v/v) to prepare the sensing solution with 5 μM of FCP-1. The sensing solution was pre-incubated in a water bath at 37° C., and then [Cu(CH3CN)](PF6) in MeCN or other metal ions in H2O was added. The solution mixture was kept at 37° C. and taken out for UV-vis absorption or emission spectroscopic measurements in quartz cuvette at predetermined time intervals. Emission spectra were corrected using coumarin 153 as secondary emission standard (4). Photoluminescence quantum yield (PLQY) was determined using fluorescein in 0.1 M NaOH solution (0.95; λex=496 nm). FRET efficiency from the fluorescein moiety to rhodamine moiety of FCP-1 was estimated by [1−(PLQY of FCP-1/PLQY of FL-TPA)].
# FCP-1 in PBS buffer containing glutathione (2 mM) and PEG-400 (40%, v/v) was evaluated. […] The first two absorption maxima corresponded to the absorption of the fluorescein moiety, as similar absorption maxima at 460 and 489 nm were found in the absorption spectra of FL-TPA (FIG. 4), whereas the lowest energy absorption at 552 nm originated from the rhodamine moiety (FIG. 4). […] Together with the significant contribution of the lower-energy fluorescence from the excitation at 450-500 nm, which is in the region of FL-TPA absorption (FIG. 6), the data support the occurrence of FRET from the fluorescein donor to the rhodamine acceptor. Using FL-TPA as a reference FRET donor compound (FIG. 7) with assumption that quenching of donor fluorescence originated only from the FRET process, the FRET efficiency in the FCP-1 cassette is estimated to be 84%.
Compound,detection of changes in labile copper with exogenous copper addition [1],ability to distinguish basal labile Cu(I) levels in Ctr1+/+ and Ctr1−/− MEFs [2],"absorption maxima ([3]; PBS buffer containing glutathione (2 mM) and PEG-400 (40%, v/v))","absorption at 458 nm ([3]; 5 μM in PBS, 2 mM GSH, 40 vol % PEG-400)"
COC(=O)c1ccccc1-c1c2ccc(=O)cc-2oc2cc(OCc3cccc(CN(Cc4ccccn4)Cc4ccccn4)n3)ccc12 [FL-TPA],able to detect changes in labile copper,unable to distinguish differences,460 nm and 489 nm,–
"N-[9-(2-carboxyphenyl)-6-(1-piperazinyl)-3H-xanthen-3-ylidene]-N-ethyl-ethanaminium [Pz-rhodamine, reference compound]",–,–,–,weak absorption
